A word on the melting point: it is the temperature, or range, at which the solid turns liquid.

Molecule `O=C(OCCn1ccnc1)c1ccccc1O` displayed a melting point of 74 to 75 °C.

Molecule `Cc1ccc(S(=O)(=O)N(C)CC(=O)N2CCC[C@H]2C=O)cc1` returned a melting point of 111 °C.

`O=c1cc(-c2cccc(OP(=O)(O)O)c2)[nH]c2ccc(N3CCCC3)cc12` registered a melting point of more than 300 °C.

Consider `Cc1nn(C)c(NC=O)c1C1=CCC(C)CC1` (stereo not given), for which the melting point was 97 to 99 °C.

As to `ClC(Cl)(Cl)c1nc2ccccc2o1`, the melting point is 102 °C.

Take `Cc1cc(SCc2ccc(OCc3ccc(Cl)cc3Cl)cc2)ccc1OCC(=O)O`: the melting point lay within 101 to 103 °C.

Consider `COC(=O)c1ccccc1CN1CCN(c2nc(C)c(C(=O)NCc3ccccc3)s2)C1=O`, for which the melting point was in the range of 130 to 133 °C.

In the case of `CC(=O)Nc1cccc(C(C)=O)c1C(=O)O`, the melting point is 131 °C.

`Oc1ncnc2c1c(Nc1ccccc1)nn2Cc1ccccc1` returned a melting point of 246 to 247 °C.

For the molecule `CCOC(=O)CCCn1cc(C(=O)c2ccc(N)c(OCCCCl)c2)c2ccccc21`, the melting point lay within 93 to 95 °C.

The molecule `CC(C)C(=O)NCc1ccc(-c2csc(N=C(N)N)n2)o1` gave a melting point of 211 to 213 °C.

`CN1CCC(c2cccc3ccc(NC(=O)c4ccccc4)cc23)C1` (stereo not given) registered a melting point of 137 to 145 °C.

Turning to `Cc1oc2ccc(Br)cc2c(=O)c1-c1ccccc1`, the melting point lay within 119 to 121 °C.

Consider `CNc1ccc2cnc(S(C)=O)nc2n1` (stereo not given), for which the melting point was 185 °C.

`Nc1sc2c(c1C(=O)c1ccc(-c3ccccc3)cc1)CCN(C(=O)OCc1ccccc1)C2` displayed a melting point of 83 to 85 °C.

With `O=C1c2ccc(NC(=O)C3CC3)cc2C(=O)c2cc(NC(=O)C3CC3)ccc21`, the melting point turned out to be 352 °C.

The molecule `CCOc1ccc(C=CC(=O)N2CCc3c([nH]c4ccccc34)C2c2ccc3c(c2)OCO3)cc1` (stereo not given) came in with a melting point of 199 to 200 °C.

`N#CC(N)c1c(Cl)cccc1Cl` (stereo not given) registered a melting point of more than 300 °C.

`NS(=O)(=O)c1ccc(-c2oc3ccc(F)cc3c(=O)c2-c2ccccc2)cc1` had a melting point of 228 to 229 °C.

The molecule `NS(=O)(=O)c1cc2cc(O)c(O)cc2s1` displayed a melting point of 233 to 235 °C.

The molecule `CCS(=O)(=O)c1cc(OC)c(OC)c(C(=O)Cl)c1` had a melting point of 67 to 68 °C.

In turn, `Cc1c(C#N)sc2nc(CCc3ccccc3)nc(NC3CCC3)c12` came in with a melting point of 153 to 155 °C.

Molecule `COc1cc(Cl)c(N)c(C(=O)O)c1OC` gave a melting point of 140 to 142 °C.

For `CC[C@H]1c2ccc(C#N)n2-c2cc(F)c(F)cc2N1S(=O)(=O)c1ccc(O)cc1`, the melting point is 191 to 192 °C.

In turn, `CC1=C(c2ccncc2)C(C)CC(=O)N1` (stereo not given) returned a melting point of 184 to 186 °C.

Regarding `NCc1ccc(CNC(=O)[C@@H](CCCNC(N)=N[N+](=O)[O-])NC(=O)C(c2ccccc2)c2ccccc2)cc1`, the melting point lay within 198 to 199 °C.

Consider `CCOCc1nc2c(N)nc3cccnc3c2n1CCCCN(OC)C(=O)NC(C)C`, for which the melting point fell in the range of 146 to 147 °C.

The molecule `COc1ccc(-c2c(CO)cc(OC)c(OC)c2OC)c(CO)c1OS(C)(=O)=O` returned a melting point of 124 to 126 °C.

In turn, `CCCOc1ccc(C(=O)CC(=O)C(C)(C)C)cc1OC` returned a melting point of 55.5 to 56.7 °C.

`O=C(O)CCC(Cc1ccccc1Cl)(C(=O)C=Cc1ccc(Cl)cc1)c1ccccc1` (stereo not given) came in with a melting point of 184 to 187 °C.

The molecule `CC(C)n1nc(-c2sc(NC(=O)c3ccc(C(F)(F)F)cc3)nc2-c2ccccc2)ccc1=O` displayed a melting point of 162 to 167 °C.

`CCc1ccc2c(c1)C=Cc1cc(C)ccc1C2c1cn(-c2ccnc(NCC(=O)Nc3nnn[nH]3)n2)c(=O)[nH]c1=O` (stereo not given) showed a melting point of 220 to 225 °C.

For `CC1CC(=O)NN=C1c1cccc(C(F)(F)F)c1` (stereo not given), the melting point was in the range of 132 to 134 °C.

For `CC1NC(=O)COC1=O` (stereo not given), the melting point lay within 139 to 141 °C.

On to `O=c1oc(-c2ccc(S(=O)c3ccccc3)cc2)cc(O)c1SCCc1ccccc1` (stereo not given), for which the melting point lay in the range of 171 to 173 °C.

As for `COc1ccc(C(Cl)C(C)(C)[N+](=O)[O-])cc1OC` (stereo not given), the melting point was 109 to 110 °C.

With `COC(=O)C#CC(=O)c1ccccc1C`, the melting point lay in the range of 43 to 45 °C.

The molecule `O=C1Cn2ccnc2-c2ccccc2N1` showed a melting point of 265 to 266 °C.

The molecule `CCC(=O)c1cc(-c2ccc(OC)cc2)no1` returned a melting point of 135 to 136 °C.

`O=C(c1nn(-c2ccc(F)cc2F)c2c1C1CCC2C1)N1CCCc2ccccc21` (stereo not given): the melting point fell in the range of 103 to 107 °C.

`C=CCn1c(C(F)(F)F)nc2ccc(-n3c(=O)cc(C(F)(F)F)n(C)c3=O)cc21` displayed a melting point of 171 to 173 °C.

The molecule `CC(C)(C)c1ccc(Cn2c3c(c4cc(OCc5ccccc5)ccc42)C(=O)C(=O)OC3)cc1` returned a melting point of 233 to 234 °C.

The molecule `Cc1c(Cl)nc(-c2ccc([N+](=O)[O-])o2)nc1Cl` returned a melting point of 174 to 175 °C.

The molecule `COC(=O)C1CCCN(COS(C)(=O)=O)c2c1cc(O)c1ccccc21` (stereo not given) had a melting point of 113 to 115 °C.

In turn, `COC(=O)c1sccc1S(=O)(=O)Nc1onc(C)c1Br` registered a melting point of 188 to 194 °C.

The molecule `CCNC(=O)c1c([Si](C)(C)C)ccc(/C=C/[N+](=O)[O-])c1Cl` returned a melting point of 104 to 106 °C.

`Cc1cccc(C)c1NCCCCn1ccnc1` came in with a melting point of 146 to 147 °C.

Molecule `CN1CCN(c2nc3cccccc-3n2)CC1` gave a melting point of 93 to 95 °C.

In the case of `Cc1cc(Cc2ccc(Cl)cc2)n(O)c(=O)c1`, the melting point amounted to 142 °C.

As for `O=C(Oc1ccc(S(=O)(=O)Nc2ccccc2)cc1)c1ccc(CCBr)cc1`, the melting point is 156 to 157 °C.

`COC1C=C2CC(OC(C)=O)CCC2(C)C2CCC3(C)C(=O)CCC3C12` (stereo not given) gave a melting point of 175 to 178 °C.

In turn, `O=C(O)c1cccc(NCc2cccc(Cl)c2)c1C(=O)O` had a melting point of 207 to 209 °C.

In the case of `CN(C)C1CCC(c2cc3ccccc3c(=O)[nH]2)CC1` (stereo not given), the melting point lay within 256 to 258 °C.

Molecule `O=C(Nc1ccc(OCCCBr)cc1)c1cccc2c(=O)c3ccccc3[nH]c12` had a melting point of 126 °C.

For the molecule `CCOC(=O)CSc1nnc(SCCCBr)s1`, the melting point lay within 118 to 120 °C.

Regarding `O=C1NC(=S)NC1=Cc1cc(O)c(O)c(Cl)c1`, the melting point lay in the range of 303 to 304 °C.

Molecule `CS(=O)(=O)Nc1c([N+](=O)[O-])cnn1-c1c(F)c(F)c(C(F)(F)F)c(F)c1F` yielded a melting point of 163 to 168 °C.

For the molecule `COc1cc(NC(C)C)ccc1CN1C(=O)C(C)(c2ccccc2Cl)c2cc(Cl)ccc21` (stereo not given), the melting point worked out at 137 °C.

For the molecule `COc1ccccc1N1CCN(C2CCN(c3csc4ccccc34)CC2)CC1`, the melting point lay in the range of 156 to 158 °C.

In the case of `CC(C)N1Cc2ccccc2P1(=O)c1ccccc1` (stereo not given), the melting point was 92 to 94 °C.

Turning to `OCCc1nccn1CCCc1ccc(OCc2coc(/C=C/c3c(F)cccc3F)n2)cc1`, the melting point fell in the range of 106 to 107 °C.

In turn, `CCOC(=O)c1ncc2[nH]c3ccc([N+](=O)[O-])cc3c2c1C` returned a melting point of 272 to 275 °C.

`CN(C)Cc1nnc2n1-c1ccccc1C(c1ccccc1)=NC2` returned a melting point of 181 to 182 °C.

The molecule `COC(=O)C(Oc1ccc(Cl)cc1)c1ccc(S(=O)c2ccc(Cl)cc2)cc1` (stereo not given) gave a melting point of 134 to 144 °C.

`N#CC1=C(C#N)Sc2nc3cc([N+](=O)[O-])c(Cl)cc3nc2S1`: the melting point fell in the range of 228 to 230 °C.

The molecule `Cc1nc2ncnn2c(O)c1CCCOCC(C)(C)C` gave a melting point of 155 to 159 °C.

The molecule `O=C1c2c(O)ccc(O)c2C(=O)c2c(NCCN(CCO)CCO)ccc(NCCN(CCO)CCO)c21` gave a melting point of 134 to 136 °C.

Turning to `COC(=O)C(CCCc1cc(C(C)(C)C)c(O)c(C(C)(C)C)c1)S(=O)(=O)C(CCCc1cc(C(C)(C)C)c(O)c(C(C)(C)C)c1)C(=O)OC` (stereo not given), the melting point is 68 to 69 °C.

`COc1cccc(N(CCN2CCC(C(=O)c3ccc(F)cc3)CC2)C(=O)c2cccc([N+](=O)[O-])c2)c1` registered a melting point of 123 to 125 °C.

`Cc1nn(-c2cc(Oc3ccc(C#N)cc3)c(Cl)cc2F)c(=O)n1C(F)F` displayed a melting point of 175 to 177 °C.

Regarding `COC(=O)c1csnc1-c1cc(C(F)(F)F)cc(C(F)(F)F)c1`, the melting point lay in the range of 45 to 46.5 °C.

For the molecule `NCCc1c2n(c3ccccc13)C(=O)CCC2`, the melting point was in the range of 110 to 111 °C.

Molecule `N=C(Nc1ccc2[nH]cc(C3CCN(C(=O)c4ccccc4)CC3)c2c1)c1cccs1` displayed a melting point of 180 to 183 °C.

`COC(=O)COc1ccc(C(=O)C(C)N2CCN(c3ccncc3)CC2)cc1` (racemic) came in with a melting point of 81 to 83 °C.

`Cc1sc(-c2ccc(C#N)cc2)nc1O` came in with a melting point of 220 to 221 °C.

The molecule `CC(C)(C)NC(=O)C1C(C=C(Cl)Cl)C1(C)C` (stereo not given) registered a melting point of 108 to 109 °C.

In turn, `O=Cc1cc2c(cc1C=O)[C@H](CO)OC2=O` registered a melting point of 144 to 145 °C.

`CC(=O)CCC(=O)c1ccccc1` yielded a melting point of 31 °C.

The molecule `CN1C(=O)c2cccc(C(F)(F)F)c2Sc2ccccc21` had a melting point of 139 to 141 °C.

With `CCCC(=O)NCCC1CCc2c(OC)ccc3ccc(OC)c1c23` (stereo not given), the melting point amounted to 99 °C.

Consider `Nc1nc2ccccc2c2c1nc(-c1ccccc1)n2CCCCNS(=O)(=O)c1ccc(F)cc1`, for which the melting point fell in the range of 214 to 216 °C.

Molecule `CN(CCCNC(=NCCCCOc1cccc(CN2CCCCC2)c1)NC#N)CCN(Cc1ccc(F)cc1)c1ccccn1` registered a melting point of 102 to 105 °C.

On to `CC(N)Cn1cc(-c2ccccc2)c2ccccc2c1=O` (stereo not given), for which the melting point was determined as 104 °C.

Regarding `CCOc1cc(N(CC)CC)ccc1C1(c2ccc(N(C)C)cc2N(C)C)OC(=O)c2ccccc21` (stereo not given), the melting point fell in the range of 146 to 150 °C.

Regarding `COc1ccc2c(c1)CCc1ccccc1C2=O`, the melting point fell in the range of 72 to 73 °C.

The molecule `CCSc1nc(NCc2ccccc2)c2ncn(C3OC(CO)C(O)C3O)c2n1` (stereo not given) showed a melting point of 172 to 174 °C.

In turn, `CC(C)(C)OC(=O)N1CC(O)C(SCc2ccccc2)C1` (stereo not given) registered a melting point of 97 to 98 °C.

The molecule `CC1(C)OC(O)C(Oc2ccc(F)c(F)c2)=C1c1ccc(S(C)(=O)=O)cc1` (stereo not given) gave a melting point of 151 °C.

Molecule `COc1ccc(N2CCOCC2)cc1NC(=S)C(=O)O` came in with a melting point of 156 to 158 °C.

Consider `COc1cc2c(cc1OC)CN(NC1=NCCN1)C2`, for which the melting point was in the range of 191 to 192 °C.
